Each structure is given as a SMILES string.

purified human MMP-12 enzyme, sequence (P39900 106-470): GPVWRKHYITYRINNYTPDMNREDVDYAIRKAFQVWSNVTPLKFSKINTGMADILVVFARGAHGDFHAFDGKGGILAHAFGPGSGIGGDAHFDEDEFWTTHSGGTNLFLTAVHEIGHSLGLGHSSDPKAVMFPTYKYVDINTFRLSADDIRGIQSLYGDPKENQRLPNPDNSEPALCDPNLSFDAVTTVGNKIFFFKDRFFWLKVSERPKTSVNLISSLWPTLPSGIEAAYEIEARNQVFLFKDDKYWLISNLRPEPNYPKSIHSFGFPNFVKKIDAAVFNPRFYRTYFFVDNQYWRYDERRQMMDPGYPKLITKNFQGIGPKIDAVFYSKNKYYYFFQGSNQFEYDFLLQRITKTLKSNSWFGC

This assay has as its target purified human MMP-12 enzyme (Homo sapiens, UniProt P39900). The experiment in a line: MMP-12 FRET assay. Type of assay: biochemical. Particulars: substrate 20 μM, room temperature. The method, boiled down:
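Enzyme pre-incubated 30 min at room temperature with compound in 50 mM HEPES pH 7.4, 100 mM NaCl, 5 mM CaCl2, 0.005% Brij-35, 10% DMSO final. Reaction started with 20 μM MCA-Pro-Leu-Gly-Leu-Dpa(DNP)-Ala-Arg, and initial cleavage rate read over 30 min (λex 325, λem 395 nm). IC50 from slope-factor inhibition fit.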
The IC50 is the concentration that gives 50% inhibition. A lower IC50 goes with greater potency. In the case of `CC(C)[C@H](NS(=O)(=O)c1ccc2c(c1)oc1ccc(-c3nc4c(F)cccc4s3)cc12)C(=O)O` [Compound 218, (S)-2-(8-(4-fluorobenzo[d]thiazol-2-yl)dibenzo[b,d]furan-3-sulfonamido)-3-methylbutanoic acid], the IC50 was less than 1.5 nM.

In turn, `CCCN(Cc1cnc(-c2ccc3oc4cc(S(=O)(=O)N[C@H](C(=O)O)C(C)C)ccc4c3c2)s1)CC1CC1` [Compound 213, (S)-2-(8-(5-(((cyclopropylmethyl)(propyl)amino)methyl)thiazol-2-yl)dibenzo[b,d]furan-3-sulfonamido)-3-methylbutanoic acid] gave an IC50 of 40 nM.

In the case of `CC(C)[C@H](NS(=O)(=O)c1ccc2c(c1)oc1ccc(C#Cc3cncn3C)cc12)C(=O)O` [Compound 15, (S)-3-methyl-2-(8-((1-methyl-1H-imidazol-5-yl)ethynyl)dibenzo[b,d]furan-3-sulfonamido)butanoic acid], the IC50 is less than 1.5 nM.

With `CC(C)[C@@H](NS(=O)(=O)c1ccc2c(c1)sc1cc(-c3ccco3)ccc12)C(=O)O` [Compound 129, (R)-2-(7-(furan-2-yl)dibenzo[b,d]thiophene-3-sulfonamido)-3-methylbutanoic acid], the IC50 was less than 1.5 nM.

`CC(C)[C@H](NS(=O)(=O)c1ccc2c(c1)oc1ccc(C(=N)Nc3ccccc3)cc12)C(=O)O` [Compound 87, (S)-3-methyl-2-(8-(N-phenylcarbamimidoyl)dibenzo[b,d]furan-3-sulfonamido)butanoic acid] showed an IC50 of 19 nM.

With `CC(C)[C@H](NS(=O)(=O)c1ccc2c(c1)oc1ccc(-c3ccc4ncccc4c3)cc12)C(=O)O` [Compound 14, (S)-3-methyl-2-(8-(quinolin-6-yl)dibenzo[b,d]furan-3-sulfonamido)butanoic acid], the IC50 is less than 1.5 nM.

As for `Cc1nc(CC(C)C)sc1-c1ccc2c(c1)oc1ccc(S(=O)(=O)N[C@H](C(=O)O)C(C)C)cc12` [Compound 247, (S)-2-(7-(2-isobutyl-4-methylthiazol-5-yl)dibenzo[b,d]furan-2-sulfonamido)-3-methylbutanoic acid], the 50% inhibitory concentration (IC50) is 131 nM. This lies in the sub-micromolar range.

In turn, `CC(C)[C@H](NS(=O)(=O)c1ccc2c(c1)sc1ccc(-c3ccoc3)cc12)C(=O)O` [Compound 25, (S)-2-(8-(furan-3-yl)dibenzo[b,d]thiophene-3-sulfonamido)-3-methylbutanoic acid] yielded an IC50 of 4.8 nM.

The molecule `COC(=O)C#Cc1ccc2oc3cc(S(=O)(=O)N[C@H](C(=O)O)C(C)C)ccc3c2c1` [Compound 6, (S)-2-(8-(3-methoxy-3-oxoprop-1-ynyl)dibenzo[b,d]furan-3-sulfonamido)-3-methylbutanoic acid] showed a half-maximal inhibitory concentration (IC50) of 30.4 nM.

`CC(C)[C@H](NS(=O)(=O)c1ccc2c(c1)sc1ccc(-c3cnn(C)c3)cc12)C(=O)O` [Compound 40, (S)-3-methyl-2-(8-(1-methyl-1H-pyrazol-4-yl)dibenzo[b,d]thiophene-3-sulfonamido)butanoic acid]: the IC50 was determined as 2.6 nM. Against the preceding molecule, the IC50 is about 12-fold lower.

For `Cc1nc(CC(C)C)sc1-c1ccc2c(c1)oc1ccc(S(=O)(=O)N[C@@H](C(=O)O)C(C)C)cc12` [Compound 245, (R)-2-(7-(2-isobutyl-4-methylthiazol-5-yl)dibenzo[b,d]furan-2-sulfonamido)-3-methylbutanoic acid], the concentration for half-maximal inhibition (IC50) was found to be 13 nM. Against the preceding molecule, the IC50 is about 5-fold higher.

The molecule `CC(C)[C@H](NS(=O)(=O)c1ccc2c(c1)sc1cc(-c3ccco3)ccc12)C(=O)O` [Compound 193, (S)-2-(7-(furan-2-yl)dibenzo[b,d]thiophene-3-sulfonamido)-3-methylbutanoic acid] registered an IC50 of less than 1.5 nM.

In turn, `CC(C)[C@H](NS(=O)(=O)c1ccc2c(c1)oc1ccc(-c3ccc(C(C)(C)C)o3)cc12)C(=O)O` [Compound 198, (S)-2-(8-(5-tert-butylfuran-2-yl)dibenzo[b,d]furan-3-sulfonamido)-3-methylbutanoic acid] returned an IC50 of 5.6 nM.

Molecule `CC(C)[C@H](NS(=O)(=O)c1ccc2c(c1)sc1ccc(-c3ccc(Cl)nc3)cc12)C(=O)O` [Compound 63, (S)-2-(8-(6-chloropyridin-3-yl)dibenzo[b,d]thiophene-3-sulfonamido)-3-methylbutanoic acid] had an IC50 of 33 nM.

The molecule `CCCn1cc(-c2ccc3sc4cc(S(=O)(=O)N[C@H](C(=O)O)C(C)C)ccc4c3c2)cn1` [Compound 42, (S)-3-methyl-2-(8-(1-propyl-1H-pyrazol-4-yl)dibenzo[b,d]thiophene-3-sulfonamido)butanoic acid] yielded an IC50 of 7.8 nM.

Consider `CC(C)Cc1ncc(-c2ccc3oc4cc(S(=O)(=O)N[C@H](C(=O)O)C(C)C)ccc4c3c2)s1` [Compound 248, (S)-2-(8-(2-isobutylthiazol-5-yl)dibenzo[b,d]furan-3-sulfonamido)-3-methylbutanoic acid], for which the half-maximal inhibitory concentration (IC50) was less than 1.5 nM.

The molecule `CCCc1ccc(-c2ccc3c(c2)oc2cc(S(=O)(=O)N[C@H](C(=O)O)C(C)C)ccc23)s1` [Compound 232, (S)-3-methyl-2-(7-(5-propylthiophen-2-yl)dibenzo[b,d]furan-3-sulfonamido)butanoic acid] returned an IC50 of less than 1.5 nM.

In turn, `CC(C)[C@@H](NS(=O)(=O)c1ccc2oc3cc(-c4ccoc4)ccc3c2c1)C(=O)O` [Compound 96, (R)-2-(7-(furan-3-yl)dibenzo[b,d]furan-2-sulfonamido)-3-methylbutanoic acid] yielded an IC50 of 13 nM.

With `CC(C)[C@@H](NS(=O)(=O)c1ccc2oc3cc(-c4ccc(Cl)nc4)ccc3c2c1)C(=O)O` [Compound 101, (R)-2-(7-(6-chloropyridin-3-yl)dibenzo[b,d]furan-2-sulfonamido)-3-methylbutanoic acid], the half-inhibitory concentration (IC50) worked out at 5.1 nM.

With `CC(C)[C@H](NS(=O)(=O)c1ccc2c(c1)oc1cc(-c3ccc(Cl)o3)ccc12)C(=O)O` [Compound 80, (S)-2-(7-(5-chlorofuran-2-yl)dibenzo[b,d]furan-3-sulfonamido)-3-methylbutanoic acid], the IC50 was less than 1.5 nM.

In the case of `CC(C)[C@H](NS(=O)(=O)c1ccc2c(c1)oc1ccc(-c3occc3CN(C)C)cc12)C(=O)O` [Compound 48, (S)-2-(8-(3-((dimethylamino)methyl)furan-2-yl)dibenzo[b,d]furan-3-sulfonamido)-3-methylbutanoic acid], the IC50 stood at 118 nM.

`Cc1nc(-c2ccc3c(c2)oc2ccc(S(=O)(=O)N[C@@H](C(=O)O)C(C)C)cc23)no1` [Compound 139, (R)-3-methyl-2-(7-(5-methyl-1,2,4-oxadiazol-3-yl)dibenzo[b,d]furan-2-sulfonamido)butanoic acid] showed an IC50 of 9.2 nM.

Molecule `CC(C)[C@@H](NS(=O)(=O)c1ccc2oc3cc(-c4cnn(C)c4)ccc3c2c1)C(=O)O` [Compound 117, (R)-3-methyl-2-(7-(1-methyl-1H-pyrazol-4-yl)dibenzo[b,d]furan-2-sulfonamido)butanoic acid] yielded an IC50 of 2.8 nM. This IC50 lies about 3.3-fold lower than the previous one.

Take `CC(C)[C@H](NS(=O)(=O)c1ccc2c(c1)oc1ccc(-c3nc(-c4ccc(C(F)(F)F)cc4)cs3)cc12)C(=O)O` [Compound 283, (S)-3-methyl-2-(8-(4-(4-(trifluoromethyl)phenyl)thiazol-2-yl)dibenzo[b,d]furan-3-sulfonamido)butanoic acid]: the 50% inhibitory concentration (IC50) was less than 1.5 nM.

Turning to `Cc1cc(-c2ccc3oc4cc(S(=O)(=O)N[C@H](C(=O)O)C(C)C)ccc4c3c2)c(C)s1` [Compound 89, (S)-2-(8-(2,5-dimethylthiophen-3-yl)dibenzo[b,d]furan-3-sulfonamido)-3-methylbutanoic acid], inhibition was half-maximal at 2.5 nM (IC50).

The molecule `CC(C)Cc1ncc(-c2ccc3c(c2)oc2cc(S(=O)(=O)N[C@H](C(=O)O)C(C)C)ccc23)s1` [Compound 249, (S)-2-(7-(2-isobutylthiazol-5-yl)dibenzo[b,d]furan-3-sulfonamido)-3-methylbutanoic acid] showed an IC50 of 7.8 nM.

`CC(C)[C@H](NS(=O)(=O)c1ccc2c(c1)oc1ccc(-c3cnn(Cc4ccccc4)c3)cc12)C(=O)O` [Compound 22, (S)-2-(8-(1-benzyl-1H-pyrazol-4-yl)dibenzo[b,d]furan-3-sulfonamido)-3-methylbutanoic acid] came in with an IC50 of 3 nM.

With `CC(C)[C@H](NS(=O)(=O)c1ccc2c(c1)oc1cc(-c3cnc(Cl)s3)ccc12)C(=O)O` [Compound 181, (S)-2-(7-(2-chlorothiazol-5-yl)dibenzo[b,d]furan-3-sulfonamido)-3-methylbutanoic acid], the half-inhibitory concentration (IC50) is less than 1.5 nM.

The molecule `CC(C)[C@H](NS(=O)(=O)c1ccc2c(c1)oc1ccc(-c3nc4ccc(OC(F)(F)F)cc4s3)cc12)C(=O)O` [Compound 221, (S)-3-methyl-2-(8-(6-(trifluoromethoxy)benzo[d]thiazol-2-yl)dibenzo[b,d]furan-3-sulfonamido)butanoic acid] showed an IC50 of 1.7 nM.

`CC(C)[C@H](NS(=O)(=O)c1ccc2c(c1)oc1ccc(-c3cncnc3)cc12)C(=O)O` [Compound 152, (S)-3-methyl-2-(8-(pyrimidin-5-yl)dibenzo[b,d]furan-3-sulfonamido)butanoic acid] registered an IC50 of less than 1.5 nM.

Take `COc1ncc(-c2ccc3c(c2)oc2ccc(S(=O)(=O)N[C@@H](C(=O)O)C(C)C)cc23)c(OC)n1` [Compound 115, (R)-2-(7-(2,4-dimethoxypyrimidin-5-yl)dibenzo[b,d]furan-2-sulfonamido)-3-methylbutanoic acid]: the concentration for half-maximal inhibition (IC50) came out at 290 nM.

Molecule `CC(C)(C)c1nc(-c2ccc3oc4cc(S(=O)(=O)N[C@H](C(=O)O)C(C)(C)C)ccc4c3c2)no1` [Compound 257, (S)-2-(8-(5-tert-butyl-1,2,4-oxadiazol-3-yl)dibenzo[b,d]furan-3-sulfonamido)-3,3-dimethylbutanoic acid] gave an IC50 of 9.1 nM.

`Cc1nc(-c2ccccc2)sc1-c1ccc2c(c1)oc1ccc(S(=O)(=O)N[C@@H](C(=O)O)C(C)C)cc12` [Compound 176, (R)-3-methyl-2-(7-(4-methyl-2-phenylthiazol-5-yl)dibenzo[b,d]furan-2-sulfonamido)butanoic acid]: the IC50 was 97 nM. This IC50 lies about 11-fold higher than the previous one.
